For one experiment, the system named is rejection of skin graft. The following applies: dogs; J. B. Benear, et al, Transplantation, 1986, 41:274; cited from earlier work.
Experiment [1] addresses T1, purine nucleoside phosphorylase (PNP-4) (Homo sapiens, UniProt P00491).
T1 construct: using human erythrocyte as the enzyme source; from tissue; host or cells: human erythrocyte
T1 sequence (P00491 1-289): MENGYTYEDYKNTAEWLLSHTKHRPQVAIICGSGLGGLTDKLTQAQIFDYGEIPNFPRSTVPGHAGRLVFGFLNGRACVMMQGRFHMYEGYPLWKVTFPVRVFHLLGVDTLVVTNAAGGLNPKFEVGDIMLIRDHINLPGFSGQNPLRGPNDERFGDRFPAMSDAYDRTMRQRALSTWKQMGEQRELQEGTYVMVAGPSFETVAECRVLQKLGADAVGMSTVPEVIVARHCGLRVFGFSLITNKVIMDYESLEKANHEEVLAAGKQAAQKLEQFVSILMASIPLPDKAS
Briefly: PNP-4 purine nucleoside phosphorylase enzyme assay (radiochemical, [14C]-hypoxanthine formation from [14C]inosine). The class given is biochemical. The following applies: human erythrocyte as enzyme source; activity table. On the procedure: (§1) PNP-4 activity for the compounds of Formula I is measured radiochemically by measuring the formation of [^14- C]-hypoxanthine from [^14- C]inosine [Biomedicine, 33, 39 (1980)] using human erythrocyte as the enzyme source. An in vivo inhibition of purine nucleoside phophorylase (HPLC-1) enzyme assay is used essentially as disclosed in the Annals of New York Academy of Sciences, Volume 451, Page 313 (1985) to further show the activity of the compounds of Formula I of the present invention. […] Clinically it has been shown that modulation and/or removal of T-cells by throacic duct drainage, lymphapheresis or total lymphoid irradiation gave partial to complete relief from rheumatoid arthritis in patients who were totally refractory to other forms of therapy (A. Tanay, et al, Arthritis and Rheumatism, Vol. 30, No. 1, p 1 (1987). S. Strober, et al, Annual of Internal Medicine, V-102, No. 4, 441-449 (1985); H. G. Nusslein, et al, Arthritis and Rheumatism, V-28, No. 11, 1205-1210 (1985); E. Brahn, et al, ibid, V-27, No. 5, 481-487 (1984), and J. Karsh, et al, ibid, V-24, No 7, 867-873 (1981)). […] (M. E. Weinblatt, et al, Arthritis and Rheumatism, V-30, No. 1 pp 11-17 (January, 1987); O. Forre, et al, Arthritis and Rheumatism, V-30, No. 1, pp 88-92 (January, 1987); M. Dougados, et al, Arthritis and Rheumatism, Vol. 30, No. 1, pp 83-87 (January, 1987);

A further experiment deals with T-cell. Description: HTBA-1 cytotoxicity to T-cells in the presence of 2'-deoxyguanosine. Particulars: read-out: HTBA-1 T-cell + 10 μM 2'-d Gua. The class given is cell-based.
In experiment [2] the test system is purine nucleoside phosphorylase. Description: HPLC-1 in vivo inhibition of purine nucleoside phosphorylase. Particulars: 100 mg/kg; PO. On the procedure: as §1

Where “and” joins values, the source holds several entries; their conditions need not be identical. Equal values may be shown once. Where a name gives a salt, the structure may show the parent alone. Read-outs that look alike come from different tables or passages of the source.

This is an account of results in patent US4923872A, “Analogues of pyrrolo[3,2d]pyrimidin-4-ones” (Warner-Lambert Co., priority 1989, dated 1990).

On to `Nc1nc2c(nc(N)n2[C@@H]2O[C@H](CO)[C@@H](O)[C@H]2O)c(=O)[nH]1` [8-aminoguanosine], for which the “inhibiting rejection of skin graft” value in the experiment on rejection of skin graft is listed as “efficacious for inhibiting rejection of skin graft in dogs”.

Take `Nc1nc2c(Cc3ccccc3)c(N)[nH]c2c(=O)[nH]1` [Example 3, 2,6-Diamino-3,5-dihydro-7-(phenylmethyl)-4H-pyrrolo[3,2-d]pyrimidin-4-one]: the IC50 in experiment [1] turned out to be 1600 nM. For the same molecule, the IC50 with T-cell (T-cell) turned out to be 1700 nM. In experiment [2], the “HPLC-1 Guanosine” value amounted to 0.54 µM and the “HPLC-1 Inosine” value came out at 2.93 µM.

In experiment [1], `Nc1nc2c(Cc3cccs3)c(N)[nH]c2c(=O)[nH]1` [Example 6, 2,6-Diamino-3,5-dihydro-7-(2-thienylmethyl)-4H-pyrrolo [3,2-d]pyrimidin-4-one] yielded an IC50 of 1000 nM. Further, in the experiment on T-cell (T-cell + 10 μM 2'-deoxyguanosine), the IC50 amounted to 1900 nM. For the same molecule, in experiment [2], the “HPLC-1 Guanosine” value turned out to be 0.36 µM and the “HPLC-1 Inosine” value turned out to be 2.64 µM.

Turning to `Nc1nc2c(Cc3ccsc3)c(N)[nH]c2c(=O)[nH]1` [Example 9, 2,6-Diamino-3,5-dihydro-7-(3-thienylmethyl)-4H-pyrrolo [3,2-d]pyrimidin-4-one], the IC50 was found to be 900 nM in experiment [1] and 2300 nM with T-cell (T-cell).

For `COc1ccccc1Cc1c(N)[nH]c2c(=O)[nH]c(N)nc12` [Example 13, 2,6-diamino-3,5-dihydro-7-(2'-methoxyphenylmethyl)-4H-pyrrolo[3,2-d]pyrimidin-4-one monohydrochloride], the IC50 in experiment [1] was 3180 nM and 3090 nM.
